Laboratory results: patent US20060089395A1, “Nf-kb activation inhibitors” (priority 2002, published 2006)
Read-outs that look alike come from different tables or passages of the source.

Test system: NF-κ B
Experiment: Inhibitory activity of NF-κ B activation, luciferase reporter assay in HepG2 under TNF-α stimulation
Format: cell-based, human
Experimental: Using a transfection reagent(Effectene; QIAGEN), the human hepatoma cell strain HepG2 was transfected with a plasmid(pNF κ B-Luc Reporter Plasmid; […]) which is integrated with an oligonucleotide having five tandem copies of NF-κ B binding sequences([…]) on a upstream region of firefly luciferase gene(Luc) according to the QIAGEN's protocol, and the cells were incubated for 6 to 24 hours. After the addition of TNF-α (40 ng/ml) in the presence or absence of a test compound, the cells were incubated for 4 hours, and intracellular luciferase activity was measured by using PicaGene LT (TOYO INK MFG Co., Ltd.) and a chemical luminescence measurement apparatus ([…]luor Plus; TECAN). The inhibitory ratio was measured as a ratio relative to the value of a luciferase activity in the absence of the test compound.

[1] = 1 μg/mL, HepG2, TNF-α (40 ng/ml), 4 hours
[2] = 10 μg/mL, HepG2, TNF-α (40 ng/ml), 4 hours
[3] = Homo sapiens, 1 μg/mL, HepG2, TNF-α (40 ng/ml), 4 hours, read-out: Inhibitory Ratio of NF-κ B Activation(%) Drug Concentration 1 μg/mL
[4] = Homo sapiens, 10 μg/mL, HepG2, TNF-α (40 ng/ml), 4 hours, read-out: Inhibitory Ratio of NF-κ B Activation(%) Drug Concentration 10 μg/mL

CC(=O)Nc1cc(O)c(C(=O)Nc2cc(C(F)(F)F)cc(C(F)(F)F)c2)cc1Cl [Compound No. 50, 4-Acetylamino-N-[3,5-bis(trifluoromethyl)phenyl]-5-chloro-2-hydoxybenzamide] was tested, and the “Inhibitory Ratio of NF-κ B Activation(%) Drug Concentration 1 μg/mL” value [1] was 69.9% and the “Inhibitory Ratio of NF-κ B Activation(%) Drug Concentration 10 μg/mL” value [2] was 96.0%.
In the case of Cc1cccc(C(=O)Nc2cc(C(F)(F)F)cc(C(F)(F)F)c2)c1O [Compound No. 58, N-[3,5-bis(trifluoromethyl)phenyl]-2-hydroxy-3-methylbenzamide], the inhibition at 1 µg/mL [3] is reported as 88.2% and the inhibition at 10 µg/mL [4] is reported as 95%.
CCOC(=O)c1sc(NC(=O)c2cc(Br)ccc2O)nc1-c1ccccc1 [Compound No. 216, 2-(5-bromo-2-hydroxybenzoyl)amino-4-phenylthiazole-5-carboxylic acid ethyl ester] gave an inhibition at 1 µg/mL [3] of 55.8% and an inhibition at 10 µg/mL [4] of 82.8%.
In the case of O=C(Nc1cc(C(F)(F)F)ccc1Oc1ccc(Cl)cc1Cl)c1cc(Cl)ccc1O [Compound No. 111], the “Inhibitory Ratio of NF-κ B Activation(%) Drug Concentration 1 μg/mL” value [1] is reported as 96.5% and the “Inhibitory Ratio of NF-κ B Activation(%) Drug Concentration 10 μg/mL” value [2] is reported as 99.7%.
With O=C(Nc1cc(F)cc(F)c1)c1cc(Br)ccc1O [Compound No. 123] the “Inhibitory Ratio of NF-κ B Activation(%) Drug Concentration 1 μg/mL” value [1] was 91.8% and the “Inhibitory Ratio of NF-κ B Activation(%) Drug Concentration 10 μg/mL” value [2] was 96.8%.
O=C(Nc1nc(-c2ccccc2)c(C(=O)c2ccccc2)s1)c1cc(Br)ccc1O [Compound No. 215, 5-Bromo-N-(5-benzoyl-4-phenylthiazol-2-yl)-2-hydroxybenzamide] was tested, and the inhibition at 1 µg/mL [3] was 90.7% and the inhibition at 10 µg/mL [4] was 97.3%.
For C#Cc1ccc(O)c(C(=O)Nc2cc(C(F)(F)F)cc(C(F)(F)F)c2)c1 [Compound No. 21], the “Inhibitory Ratio of NF-κ B Activation(%) Drug Concentration 1 μg/mL” value [1] was 53.3% and the “Inhibitory Ratio of NF-κ B Activation(%) Drug Concentration 10 μg/mL” value [2] was 90.1%.
For O=C(Nc1nnc(C(F)(F)F)s1)c1cc(Br)ccc1O [Compound No. 238], the “Inhibitory Ratio of NF-κ B Activation(%) Drug Concentration 1 μg/mL” value [1] was 26.1% and the “Inhibitory Ratio of NF-κ B Activation(%) Drug Concentration 10 μg/mL” value [2] was 90.3%.
For CC(C)c1cc(Br)cc(C(=O)Nc2cc(C(F)(F)F)cc(C(F)(F)F)c2)c1O [Compound No. 257], the “Inhibitory Ratio of NF-κ B Activation(%) Drug Concentration 1 μg/mL” value [1] was >99.9%.
In the case of Cc1ccc(O)c(C(=O)Nc2cc(C(F)(F)F)ccc2Cl)c1 [Compound No. 100], the “Inhibitory Ratio of NF-κ B Activation(%) Drug Concentration 1 μg/mL” value [1] is reported as 85.6% and the “Inhibitory Ratio of NF-κ B Activation(%) Drug Concentration 10 μg/mL” value [2] is reported as 95.1%.
In the case of O=C(Nc1cc(Cl)cc(Cl)c1)c1cc([N+](=O)[O-])ccc1O [Compound No. 130], the “Inhibitory Ratio of NF-κ B Activation(%) Drug Concentration 10 μg/mL” value [2] is reported as 70.6%.
CC(C)(C)c1nc(NC(=O)c2cc(Cl)ccc2O)sc1C#N [Compound No. 188, 5-Chloro-N-{5-cyano-4-[(1,1-dimethyl)ethyl]thiazol-2-yl)-2-hydroxybenzamide] gave an inhibition at 1 µg/mL [3] of 92.6% and an inhibition at 10 µg/mL [4] of 92.4%.
In the case of CC(C)(C)c1cc(NC(=O)c2cc([N+](=O)[O-])ccc2O)cc(C(C)(C)C)c1 [Compound No. 146], the “Inhibitory Ratio of NF-κ B Activation(%) Drug Concentration 1 μg/mL” value [1] is reported as 91.2% and the “Inhibitory Ratio of NF-κ B Activation(%) Drug Concentration 10 μg/mL” value [2] is reported as 98.5%.
With C[Si](C)(C)C#Cc1ccc(O)c(C(=O)Nc2cc(C(F)(F)F)cc(C(F)(F)F)c2)c1 [Compound No. 20, N-[3,5-bis(trifluoromethyl)phenyl]-2-hydroxy-5-[(trimethylsilyl)ethynyl]benzamide] the inhibition at 1 µg/mL [3] was 91.1% and the inhibition at 10 µg/mL [4] was 94.9%.
O=C(Nc1nc(Cc2ccccc2)c(-c2ccccc2)s1)c1cc(Br)ccc1O [Compound No. 212] was tested, and the “Inhibitory Ratio of NF-κ B Activation(%) Drug Concentration 1 μg/mL” value [1] was 79.7% and the “Inhibitory Ratio of NF-κ B Activation(%) Drug Concentration 10 μg/mL” value [2] was 95.0%.
In the case of O=C(Nc1cc(Cl)cc(Cl)c1)c1cc(Br)cc(Br)c1O [Compound No. 128], the “Inhibitory Ratio of NF-κ B Activation(%) Drug Concentration 1 μg/mL” value [1] is reported as 91.4% and the “Inhibitory Ratio of NF-κ B Activation(%) Drug Concentration 10 μg/mL” value [2] is reported as 95.1%.
With O=C(Nc1cccc(Br)n1)c1cc(Cl)ccc1O [Compound No. 243] the “Inhibitory Ratio of NF-κ B Activation(%) Drug Concentration 1 μg/mL” value [1] was 84.2% and the “Inhibitory Ratio of NF-κ B Activation(%) Drug Concentration 10 μg/mL” value [2] was 95.1%.
With COC(=O)c1cc(NC(=O)c2cc(Br)ccc2O)cc(C(=O)OC)c1 [Compound No. 144, 5-bromo-2-hydroxy-N-[3,5-bis(methoxycarbonyl)phenyl]benzamide] the inhibition at 10 µg/mL [4] was 56.4%.
With CC(O)c1ccc(O)c(C(=O)Nc2cc(C(F)(F)F)cc(C(F)(F)F)c2)c1 (stereo not shown) [Compound No. 13] the “Inhibitory Ratio of NF-κ B Activation(%) Drug Concentration 1 μg/mL” value [1] was 76.8% and the “Inhibitory Ratio of NF-κ B Activation(%) Drug Concentration 10 μg/mL” value [2] was 96.0%.
In the case of CC(C)(C)c1cc(NC(=O)c2cc(Cl)cnc2O)cc(C(C)(C)C)c1 [Compound No. 184], the “Inhibitory Ratio of NF-κ B Activation(%) Drug Concentration 1 μg/mL” value [1] is reported as 53.6% and the “Inhibitory Ratio of NF-κ B Activation(%) Drug Concentration 10 μg/mL” value [2] is reported as 63.8%.
O=C(Nc1nc(-c2ccccc2)cs1)c1cc(Br)ccc1O [Compound No. 208] was tested, and the “Inhibitory Ratio of NF-κ B Activation(%) Drug Concentration 10 μg/mL” value [2] was 78.8%.
Molecule CC(C)(C)c1csc(NC(=O)c2cc(Br)ccc2O)n1 [Compound No. 185, 5-Bromo-N-{4-[(1,1-dimethyl)ethyl]thiazol-2-yl}-2-hydroxybenzamide] has an inhibition at 1 µg/mL [3] of 88.4% and an inhibition at 10 µg/mL [4] of 95.2%.
With O=C(Nc1cc(C(F)(F)F)cc(C(F)(F)F)c1)c1ccc(O)cc1O [Compound No. 55] the “Inhibitory Ratio of NF-κ B Activation(%) Drug Concentration 1 μg/mL” value [1] was 10.8% and the “Inhibitory Ratio of NF-κ B Activation(%) Drug Concentration 10 μg/mL” value [2] was 88.6%.
With O=C(Nc1nc(-c2cc(F)ccc2F)cs1)c1cc(Cl)ccc1O [Compound No. 263, 5-Chloro-2-hydroxy-N-[4-(2,5-difluorophenyl)thiazol-2-yl]benzamide] the inhibition at 1 µg/mL [3] was > 99.9%.
CCOC(=O)c1sc(NC(=O)c2cc(Cl)ccc2O)nc1-c1ccccc1 [Compound No. 218] was tested, and the “Inhibitory Ratio of NF-κ B Activation(%) Drug Concentration 1 μg/mL” value [1] was 80.7% and the “Inhibitory Ratio of NF-κ B Activation(%) Drug Concentration 10 μg/mL” value [2] was 94.2%.
O=C(Nc1cc(C(F)(F)F)ccc1Cl)c1cc([N+](=O)[O-])ccc1O [Compound No. 99] was tested, and the “Inhibitory Ratio of NF-κ B Activation(%) Drug Concentration 1 μg/mL” value [1] was 54.3% and the “Inhibitory Ratio of NF-κ B Activation(%) Drug Concentration 10 μg/mL” value [2] was 98.0%.
With COc1ccc(C(C)(C)C)cc1NC(=O)c1cc(C)ccc1O [Compound No. 149] the “Inhibitory Ratio of NF-κ B Activation(%) Drug Concentration 1 μg/mL” value [1] was 37.4% and the “Inhibitory Ratio of NF-κ B Activation(%) Drug Concentration 10 μg/mL” value [2] was 87.1%.
Cc1cc(Oc2ccc(C(F)(F)F)cc2NC(=O)c2cc(Cl)ccc2O)cc(C)c1Cl [Compound No. 115] was tested, and the “Inhibitory Ratio of NF-κ B Activation(%) Drug Concentration 1 μg/mL” value [1] was 90.7% and the “Inhibitory Ratio of NF-κ B Activation(%) Drug Concentration 10 μg/mL” value [2] was 98.4%.
O=C(Nc1cc(C(F)(F)F)cc(C(F)(F)F)c1)c1ccc(-c2ccccc2)cc1O [Compound No. 262, N-[3,5-Bis(trifluoromethyl)phenyl]-2-hydroxy-4-phenylbenzamide] was tested, and the inhibition at 1 µg/mL [3] was > 99.9%.
CC(=O)Oc1ccc(Cl)cc1C(=O)Nc1cc(C(F)(F)F)ccc1Cl [Compound No. 89] was tested, and the “Inhibitory Ratio of NF-κ B Activation(%) Drug Concentration 1 μg/mL” value [1] was 96.7% and the “Inhibitory Ratio of NF-κ B Activation(%) Drug Concentration 10 μg/mL” value [2] was 97.4%.
In the case of O=C(Nc1cnc2ccccc2c1)c1cc(Cl)ccc1O [Compound No. 242], the “Inhibitory Ratio of NF-κ B Activation(%) Drug Concentration 10 μg/mL” value [2] is reported as 85.7%.
With CC(C)(C)c1cc(NC(=O)c2cc(Cl)ccc2O)cc(C(C)(C)C)c1 [Compound No. 138, N-{3,5-bis[(1,1-dimethyl)ethyl]phenyl}-5-chloro-2-hydroxybenzamide] the inhibition at 1 µg/mL [3] was 89.6% and the inhibition at 10 µg/mL [4] was 98.1%.
O=C(Nc1ccc(C(F)(F)F)cc1)c1cc(Cl)ccc1O [drawing 561, reference compound] was tested, and the inhibition at 0.1 µg/mL (Homo sapiens, HepG2, 4 h, 0.1 μg/ml, comparison table, reporter assay, read-out: Inhibitory Ratio of NF-κB Activation (%) 0.1 μg/ml) was -35.5%, the inhibition at 1 µg/mL (Homo sapiens, HepG2, 4 h, 1 μg/ml, comparison table, reporter assay, read-out: Inhibitory Ratio of NF-κB Activation (%) 1 μg/ml) was 85.3% and the inhibition at 10 µg/mL (Homo sapiens, HepG2, 4 h, 10 μg/ml, comparison table, reporter assay, read-out: Inhibitory Ratio of NF-κB Activation (%) 10 μg/ml) was 95%.
O=C(Nc1cc(C(F)(F)F)ccc1N1CCOCC1)c1cc(Cl)ccc1O [Compound No. 106] was tested, and the “Inhibitory Ratio of NF-κ B Activation(%) Drug Concentration 1 μg/mL” value [1] was 92.3% and the “Inhibitory Ratio of NF-κ B Activation(%) Drug Concentration 10 μg/mL” value [2] was 92.1%.
N#CC(C#N)=Cc1ccc(O)c(C(=O)Nc2cc(C(F)(F)F)cc(C(F)(F)F)c2)c1 [Compound No. 16, N-[3,5-Bis(trifluoromethyl)phenyl]-5-(2,2-dicyanoethen-1-yl)-2-hydroxybenzamide] showed an inhibition at 1 µg/mL [3] of 42.7% and an inhibition at 10 µg/mL [4] of 99.4%.
With N#Cc1ccc(Cl)cc1NC(=O)c1cc(Cl)ccc1O [Compound No. 154] the “Inhibitory Ratio of NF-κ B Activation(%) Drug Concentration 1 μg/mL” value [1] was 83.0% and the “Inhibitory Ratio of NF-κ B Activation(%) Drug Concentration 10 μg/mL” value [2] was 93.3%.
With CCOC(=O)c1sc(NC(=O)c2cc(Br)ccc2O)nc1C(F)(F)F [Compound No. 224] the “Inhibitory Ratio of NF-κ B Activation(%) Drug Concentration 1 μg/mL” value [1] was 87.6% and the “Inhibitory Ratio of NF-κ B Activation(%) Drug Concentration 10 μg/mL” value [2] was 96.5%.
With CCc1sc(NC(=O)c2cc(Br)ccc2O)nc1C(C)(C)C [Compound No. 195, 5-Bromo-N-{4-[(1,1-dimethyl)ethyl]-5-ethylthiazol-2-yl}-2-hydroxybenzamide] the inhibition at 1 µg/mL [3] was 90.5% and the inhibition at 10 µg/mL [4] was 98.1%.
With O=C(Nc1cc(C(F)(F)F)ccc1N1CCC(C(F)(F)F)CC1)c1cc(Cl)ccc1O [Compound No. 112] the “Inhibitory Ratio of NF-κ B Activation(%) Drug Concentration 1 μg/mL” value [1] was 96.5% and the “Inhibitory Ratio of NF-κ B Activation(%) Drug Concentration 10 μg/mL” value [2] was 95.7%.
For O=C(Nc1nc(C(F)(F)F)c(-c2ccccc2)s1)c1cc(Br)ccc1O [Compound No. 213], the “Inhibitory Ratio of NF-κ B Activation(%) Drug Concentration 1 μg/mL” value [1] was 85.1% and the “Inhibitory Ratio of NF-κ B Activation(%) Drug Concentration 10 μg/mL” value [2] was 89.4%.
Cc1ccc(C(F)(F)F)cc1NC(=O)c1cc(Cl)ccc1O [compound 92] was tested, and the “Inhibitory Ratio of NF-κ B Activation(%) Drug Concentration 1 μg/mL” value [1] was 93.8% and the “Inhibitory Ratio of NF-κ B Activation(%) Drug Concentration 10 μg/mL” value [2] was 97.9%.
